The results in this text go back to patent US5716958A, “Amino acid derivative having anti-CCK activity” (Tobishi Pharmaceutical Co., Ltd., priority 1994, dated 1998).

Each structure is given as a SMILES string. Where two headings read alike, the source gives them in different places.

Assay [1] relates to extracted guinea pig ileum. The assay can be described thus: Anti-CCK action in extracted guinea pig ileum (inhibition of CCK-8-induced contraction, Magnus tube). The following applies: Cavia porcellus; contraction by 1×10^-8 M CCK-8, test compound added 5 minutes before; extracted ileum, 37° C; read-out: Active IC50. Further details: species or system guinea pig (Hartley strain, male). How it is done:
Anti-cholecystokinin (CCK) Action in Extracted Guinea Pig Ileum After sacrificing a male guinea pig (Hartley strain) by striking and exsanguination, a piece of extracted ileum was suspended from a Magnus tube, while applying tension of 0.5 g, containing 30 ml of Tyrode's solution (NaCl 136.9 mM, KCl 2.68 mM, CaCl2 1.8 mM, MgCl2 1.05 mM, NaH2 PO4 0.42 mM, NaHCO3 11.9 mM and glucose 5.55 mM) and ventilated with mixed O2 gas containing 5% CO2 at 37° C. Changes in contraction were recorded on smoked paper for isotonicity via a bevel. The piece of ileum was allowed to stand undisturbed for 30 minutes and then contracted by addition 1×10^-8 M CCK-8. After washing, this was repeated several times. After the contraction by CCK-8 had stabilized, the test compound was added. Contraction resulting from addition of 1×10^-8 M CCK was then measured 5 minutes later. The contraction caused by CCK-8 and the contraction caused by CCK-8 in the presence of the test compound at varying concentrations were compared, and the resulting IC50 values (concentration of test substance at which contraction caused by CCK-8 is inhibited by 50%) are shown in Table 2. The compound numbers shown in Table 2 indicate the target compounds according to the numbers of the embodiments.

A further assay has as its target T1, CCK-A (Rattus norvegicus, UniProt P30551).
T1 construct: CCK-A receptors prepared from the cell membranes of rat pancreas; from tissue; host or cells: rat pancreas membranes (male rats, Japan Laboratory Animals)
T1 sequence (P30551 1-444): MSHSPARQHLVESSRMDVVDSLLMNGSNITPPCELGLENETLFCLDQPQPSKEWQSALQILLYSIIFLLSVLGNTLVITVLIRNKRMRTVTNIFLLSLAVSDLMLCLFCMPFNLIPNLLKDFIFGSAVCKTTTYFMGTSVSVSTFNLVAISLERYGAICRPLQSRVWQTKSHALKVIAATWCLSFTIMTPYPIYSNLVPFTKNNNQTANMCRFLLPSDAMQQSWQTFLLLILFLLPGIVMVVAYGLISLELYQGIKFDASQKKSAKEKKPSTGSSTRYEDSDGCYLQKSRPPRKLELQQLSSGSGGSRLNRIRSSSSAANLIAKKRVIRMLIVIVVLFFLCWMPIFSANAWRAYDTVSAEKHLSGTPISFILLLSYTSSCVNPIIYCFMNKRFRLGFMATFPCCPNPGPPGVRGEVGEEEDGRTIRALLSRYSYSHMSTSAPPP
The experiment in a line: Peripheral receptor (CCK-A) binding experiment, [^3 H]-CCK-8 binding inhibition. The note with it: for CCK-B/CCK-A: ratio of IC50 values CCK-B/CCK-A (selectivity for CCK-A), 60 min. Here is the method:
(§1) Peripheral Receptor (CCK-A) and Central Receptor (CCK-B) Binding Experiment
(§2) The pancreas and cerebrum of male rats (Japan Laboratory Animals), which were sacrificed by decapitation and having body weights of 250-300 g, were extracted and immersed in cold Hepes buffer. After suspending these tissues using a Potter homogenizer, the suspension was centrifuged for 10 minutes at 48,000×g. The resulting residue was again suspended by addition of cold Hepes buffer and centrifuged for 10 minutes at 48,000×g. The resulting residue was transferred to cold incubation buffer.
(§3) A 1 ml aliquot of the homogenate was incubated for 60 minutes at 25° C. in the presence of 0.2 nM [^3 H]-CCK-8 and the test compound, in the presence of vehicle only (for measurement of 100% binding), or in the presence of 1 μM cold CCK-8 (for measurement of non-specific binding). Next, the reaction solution was promptly suction filtered using a Whatman glass GF/B filter immersed in Hepes buffer followed by washing the filter with cold Hepes buffer. Next, the glass filter was placed in Aquasol-2 followed by assay of radioactivity with a liquid scintillation counter.
(§4) The compound numbers shown in Table 3 indicate the target compounds according to the number of the embodiment.

For another assay, the target named is T2, CCK-B (Rattus norvegicus, UniProt P30553).
T2 construct: CCK-B receptors originating in the cell membrane of rat brain cells; from tissue; host or cells: rat cerebrum membranes (male rats, Japan Laboratory Animals)
T2 sequence (P30553 1-452): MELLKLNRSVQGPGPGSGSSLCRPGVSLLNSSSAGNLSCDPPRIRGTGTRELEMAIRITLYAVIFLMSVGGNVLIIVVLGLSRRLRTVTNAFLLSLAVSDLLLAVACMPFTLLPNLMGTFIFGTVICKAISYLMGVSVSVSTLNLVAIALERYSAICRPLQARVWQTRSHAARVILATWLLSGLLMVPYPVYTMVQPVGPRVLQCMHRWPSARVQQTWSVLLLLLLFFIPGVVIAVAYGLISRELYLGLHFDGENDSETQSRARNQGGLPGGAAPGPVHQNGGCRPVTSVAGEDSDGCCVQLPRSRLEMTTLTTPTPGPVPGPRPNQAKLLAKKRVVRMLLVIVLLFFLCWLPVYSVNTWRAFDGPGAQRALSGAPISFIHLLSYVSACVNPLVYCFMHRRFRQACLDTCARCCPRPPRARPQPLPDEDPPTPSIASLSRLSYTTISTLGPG
The assay can be described thus: Central receptor (CCK-B) binding experiment, [^3 H]-CCK-8 binding inhibition. The following applies: rat cerebrum homogenate, 0.2 nM [^3 H]-CCK-8, 60 minutes at 25° C. Here is the method:
as §1, §2, §3, §4

[2] abbreviates: rat pancreas homogenate, 0.2 nM [^3 H]-CCK-8, 60 minutes at 25° C, read-out: CCK-A IC50.
Where [3] appears, read: rat pancreas cell membranes, read-out: activity in binding experiment on CCK-A receptors prepared from the cell membranes of rat pancreas.

Consider `CCCCCN(CCCOC)C(=O)C(CCC(=O)O)NC(=O)c1ccc(Cl)c(Cl)c1` (stereo not drawn) [CR1505, Loxiglumide, reference compound], for which the figures for the IC50 (in assay [1]; at CCK-A (setting [2]); on CCK-B) were 3.3 µM, 1.5 µM and 24 µM, respectively. Moreover, the CCK-B/CCK-A on CCK-A is listed as 16.

Take `O=C(N[C@@H](CSc1ncccc1C(=O)O)C(=O)N1CCN(C(c2ccccc2)c2ccccc2)CC1)c1cc2ccccc2[nH]1` [Compound 1-6, (R)-1-[3-(3-carboxypyridin-2-yl)thio-2-(indol-2-yl)carbonylamino]propionyl-4-diphenylmethylpiperazine]: the IC50 in assay [1] came to 0.013 µM; at CCK-A (setting [3]) it was 0.0051 µM; on CCK-A (setting [2]) it was 0.0051 µM; at CCK-B it was 14 µM. Also, at CCK-A, the CCK-B/CCK-A came out at 2745.

Turning to `O=C(N[C@@H](CSc1ncccc1C(=O)O)C(=O)N1CCC(C(c2ccccc2)c2ccccc2)CC1)c1cc2ccccc2[nH]1` [Compound 2-6, (R)-4-diphenylmethyl-1-[3-(3-carboxypyridin-2-yl)thio-2-(indol-2-yl)carbonylamino)propionylpiperidine], the IC50 is 0.06 µM in assay [1], 0.0043 µM at CCK-A (setting [3]), 0.0043 µM on CCK-A (setting [2]) and 57 µM at CCK-B. For the same molecule, at CCK-A, the CCK-B/CCK-A stood at 13256.

`COc1ccc2[nH]c(C(=O)N[C@@H](CSc3ncccc3C(=O)O)C(=O)N3CCN(C(c4ccccc4)c4ccccc4)CC3)cc2c1` [Compound 6-2, (R)-1-[3-(3-carboxypyridin-2-yl)thio-2-(5-methoxyindol-2-yl)carbonylamino]propionyl-4-diphenylmethylpiperazine]: the IC50 in assay [1] was 0.052 µM; on CCK-A (setting [2]), 0.043 µM; on CCK-B, 18 µM. Further, the CCK-B/CCK-A at CCK-A was found to be 419.

For the molecule `COc1ccc(C(c2ccc(OC)cc2)N2CCN(C(=O)[C@H](CSc3ncccc3C(=O)O)NC(=O)c3cc4ccccc4[nH]3)CC2)cc1` [Compound 7-4, (R)-4-bis(4-methoxyphenyl)methyl-1-[3-(3-carboxypyridin-2-yl)thio-2-(indol-2-yl)carbonylamino]propionylpiperazine], the IC50 at CCK-A (setting [2]) came out at 0.8 µM; on CCK-B, 61 µM. In addition, at CCK-A, the CCK-B/CCK-A is recorded as 76.

As to `O=C(N[C@@H](CSc1ccccc1C(=O)O)C(=O)N1CCN(C(c2ccccc2)c2ccccc2)CC1)c1cc2ccccc2[nH]1` [Compound 9-3, (R)-1-[3-(2-carboxyphenyl)thio-2-(indol-2-yl)carbonylamino]propionyl-4-diphenylmethylpiperazine], the results for the IC50 on CCK-A (setting [2]) and at CCK-B were 0.21 µM and 6 µM, respectively. Besides, the CCK-B/CCK-A on CCK-A was determined as 29.

`O=C(N[C@@H](CSc1ncccc1C(=O)O)C(=O)N1CCN(C2c3ccccc3CCc3ccccc32)CC1)c1cc2ccccc2[nH]1` [Compound 19-5, (R)-1-[3-(3-carboxypyridin-2-yl)thio-2-(indol-2-yl)carbonylamino]propionyl-4-(10,11-dihydro-5H-dibenzo[a,d]cyclohepten-5-yl)piperazine]: the figures for the IC50 on CCK-A (setting [3]), at CCK-A (setting [2]) and on CCK-B were 0.009 µM, 0.009 µM and 64 µM, respectively. In addition, the CCK-B/CCK-A at CCK-A came out at 7111.

As to `O=C(N[C@@H](CSc1ncccc1C(=O)O)C(=O)N1CCC(C(c2ccccc2)c2ccccc2)CC1)c1cc2cc(Cl)ccc2[nH]1` [Compound 20-2, (R)-1-[3-(3-carboxypyridin-2-yl)thio-2-(5-chloroindol-2-yl)carbonylamino]propionyl-4-diphenylmethylpiperidine], the IC50 on CCK-A (setting [2]) was 0.06 µM; on CCK-B, over 1000 µM. For the same molecule, the CCK-B/CCK-A on CCK-A was over 16667.

As to `COc1ccc2[nH]c(C(=O)N[C@@H](CSc3ncccc3C(=O)O)C(=O)N3CCC(C(c4ccccc4)c4ccccc4)CC3)cc2c1` [Compound 21-2, (R)-1-[3-(3-carboxypyridin-2-yl)thio-2-(5-methoxyindol-2-yl)carbonylamino]propionyl-4-diphenylmethylpiperidine], the values for the IC50 on CCK-A (setting [2]) and on CCK-B were 0.013 µM and 1700 µM, respectively. In addition, the CCK-B/CCK-A on CCK-A was 130770.

Consider `O=C(N[C@@H](CCCn1nnc(C(=O)O)c1C(=O)O)C(=O)N1CCN(C(c2ccccc2)c2ccccc2)CC1)c1cc2ccccc2[nH]1` [Compound 23-6, (S)-1-[5-(4,5-dicarboxy-1,2,3-triazol-1-yl)-2-(indol-2-yl)carbonylamino]valeryl-4-diphenylmethylpiperazine], for which the values for the IC50 at CCK-A (setting [2]) and at CCK-B were 0.14 µM and 25 µM, respectively. Further, the CCK-B/CCK-A at CCK-A amounted to 179.

With `O=C(N[C@@H](CCSc1ncccc1C(=O)O)C(=O)N1CCN(C(c2ccccc2)c2ccccc2)CC1)c1cc2ccccc2[nH]1` [Compound 25-7, (S)-1-[4-(3-carboxypyridin-2-yl)thio-2-(indol-2-yl)carbonylamino]butyryl-4-diphenylmethylpiperazine], the IC50 was found to be 0.21 µM on CCK-A (setting [2]) and 12 µM at CCK-B. The CCK-B/CCK-A at CCK-A came to 57.

For `O=C(N[C@@H](CCCn1nncc1C(=O)O)C(=O)N1CCN(C(c2ccccc2)c2ccccc2)CC1)c1cc2ccccc2[nH]1` [Compound 28-3, (S)-1-[5-(5-carboxy-1,2,3-triazol-1-yl)-2-(indol-2-yl)carbonylamino]valeryl-4-diphenylmethylpiperazine], the IC50 is 0.07 µM on CCK-A (setting [2]) and 3 µM at CCK-B. The CCK-B/CCK-A on CCK-A is recorded as 43.

On to `O=C(O)c1cn(CCC[C@H](NC(=O)c2cc3ccccc3[nH]2)C(=O)N2CCN(C(c3ccccc3)c3ccccc3)CC2)nn1` [Compound 29-2, (S)-1-[5-(4-carboxy-1,2,3-triazol-1-yl)-2-(indol-2-yl)carboxyamino]valeryl-4-diphenylmethylpiperazine], for which the figures for the IC50 on CCK-A (setting [2]) and at CCK-B were 1.5 µM and 26 µM, respectively. Further, the CCK-B/CCK-A at CCK-A came to 17.

For the molecule `O=C(N[C@@H](Cn1nnc(C(=O)O)c1C(=O)O)C(=O)N1CCN(C(c2ccccc2)c2ccccc2)CC1)c1cc2ccccc2[nH]1` [Compound 31-3, (S)-1-[3-(4,5-dicarboxy-1,2,3-triazol-1-yl)-2-(indol-2-yl)carbonylamino]propionyl-4-diphenylmethylpiperazine], the IC50 in assay [1] came to 0.032 µM.

Regarding `O=C(N[C@@H](Cn1nncc1C(=O)O)C(=O)N1CCN(C(c2ccccc2)c2ccccc2)CC1)c1cc2ccccc2[nH]1` [Compound 32-2, (S)-4-diphenylmethyl-1-[3-(5-carboxy-1,2,3-triazol-1-yl)-2-(indol-2-yl)carbonylamino]propionylpiperazine], the IC50 in assay [1] was found to be 0.036 µM.
